Assays:
Type in all cases: cell-based
[1] = tested on: luciferase-expressing L. major parasites developing intracellularly inside RAW 264.7 macrophages; assay: Leishmania major intracellular amastigote assay in RAW 264.7 macrophages (luciferase); conditions: RAW264.7, 96 hours, read-out: IC50: I Org. intracellular amastigote Growth L. major, 4 d
From the text: Example 107. Assay for Leishmania major Intracellular Amastigote Assay in RAW 264.7 Macrophages
The intracellular amastigote assay is a microtiter plate drug sensitivity assay that uses the activity of luciferase as a measure of proliferation of luciferase-expressing L. major parasites developing intracellularly inside RAW 264.7 macrophages in the presence of antileishmanial drugs or experimental compounds. (Buckner, F. S., and A. J. Wilson. Am J Prop Med Hyg, 2005, 72(5): 600-605.) As the activity of luciferase and its associated luminescence after addition of the substrate, luciferin, is relative to parasite growth, a test compound that inhibits the growth of the parasite will result in a lower luminescence. The luciferase-expressing L. major parasite used in this assay is genetically modified by adding the luciferase coding region to the pLEXSY-hyg2 vector (Jena Biosciences). The luciferase expression construct was created by digesting the luciferase coding region (1.66 kbp) of pGL3-Basic (Promega) by using two restriction enzymes, NcoI/EagI, followed by electrophoretic separation of the luciferase coding region on a 1% agarose gel. The luciferase coding region was then ligated into pLEXSY-hyg2 vector (Jena Biosciences) which had previously been digested with NcoI/NotI. The vector was linearized with SwaI and subsequently gel purified prior to transfection into L. major parasites. Transfections were carried out by electroporation at 480V, 13Ω, and 500 μF (0.4 mL of 1×10^8 parasites/mL, and 0.1 mL of 10 μg DNA). Selection for transfectants was then carried out using hygromycin B (100 μg/mL). RAW 264.7 macrophages were cultured in DMEM media (ATCC Cat #30-2002) supplemented with heat-inactivated 10% FBS (Invitrogen Cat #10438-034). To begin the assay, macrophages were harvested from culture by removing all spent media, adding in 10 mL fresh media, scraping cells, and counted using Trypan Blue. The cells were resuspended in DMEM/10% HIFBS media at 2.0×10^5 cells/mL, and then dispensed in a volume of 50 μL to yield a final concentration of 10,000 macrophages/well in 384 well tissue-culture treated sterile white plates (Nunc Cat #12-565-343) using a Tecan EVO Freedom robotics system. The plates were then incubated at 37° C. overnight in 5% CO2 atmosphere for 24 hours. After overnight incubation, the media was removed from each well using the Tecan EVO Freedom robot, and L. major promastigotes were added to each well and allowed to invade the RAW macrophages. Promastigotes were cultured in Schneider's medium (Invitrogen Cat #11720-067) supplemented with 20% heat inactivated FBS. Metacyclic stage promastigotes provide the best invasion for this assay, and cultures should be grown to increase the percentage of metacyclic promastigotes for best results. Promastigotes were harvested from culture, counted, suspended at 2×10^6 promastigotes/mL in DMEM/HIFBS media, and 100,000 promastigotes were dispensed per well in a volume of 50 μL. After overnight incubation, the media was removed from each well using the Tecan Freedom EVO robot, and each well was subsequently washed three times with 40 μF of fresh DMEM/HIFBS medium to remove all extracellular promastigotes. After the third wash, 69.2 μF of DMEM/HIFBS medium was added to each well using the Tecan EVO Freedom robot. Drug plates were prepared with the Tecan EVO Freedom using sterile 96 well plates containing twelve duplicate two-fold serial dilutions of each test compound suspended in DMSO. 7.8 μF of diluted test compound was added to the 69.2 μF of media present in each well providing a 10 fold final dilution of compound. The final concentration range tested was 0.5 to 10,000 ng/ml for all assays. The plates were next incubated at 37° C. and 5% CO2 for 96 hours. After 96 hours of incubation, 7.5 μF of a luciferin solution (Caliper Fife Science) diluted to 150 μg/mF was added to each well, and the plates were incubated for 30 minutes at 37° C., in the dark. […]

[2] = tested on: TdTomato-modified T. cruzi (CL strain) in Vero cells; assay: In vitro IC50 measurement of T. cruzi amastigote killing using TdTomato-modified T. cruzi (CL strain); conditions: Trypanosoma cruzi, 72 h, fluorescence, read-out: IC50: I Org. amastigote Growth T. cruzi CL TdTomato, 3 d
Procedure: Example 112. In Vitro IC50 Measurement of T. cruzi Amastigote Killing Using TdTomato-Modified T. cruzi (CL Strain)
The T. cruzi parasites used in this assay were genetically modified to express Td Tomato fluorescent protein. Vero cells (African green monkey kidney epithelial cells) were harvested from continuous cultures using trypsin and added to the inner 60 wells of 96-well Greiner Bio One plates (plate catalog #655090) at 200 ul/well of […]. Cells were allowed to adhere for 1 h before infection with T. cruzi. T. cruzi for infection were harvested from previously-infected Vero cells, washed, pelleted and resuspended at 5×10^6/mL. 50 uL of parasites were added to each well containing Vero cells. Compounds were prepared from 5 mM stock concentrations in DMSO to final concentrations in wells ranging from 5 uM to 5 nM. Wells were provided for negative controls, lacking compounds. Plates were placed into a 37° C. incubator for 20 min, then a “Day 0” reading was taken on a Synergy H4 plate reader to record initial fluorescence levels, at 544 (excitation) and 612 nm (emission). 96-well plates were placed in Tupperware containers with wet paper towels and incubated at 37° C. incubator for 72 h. After 72 h plates were reread (Day 3 reading) and data analyzed using Excel and/or Graphpad software. Day 0 fluorescence was subtracted from Day 3 to remove input parasite fluorescence. Growth curves are generated and 50% and 90% inhibitory concentrations are determined by nonlinear regression analysis.

[3] = tested on: promastigote forms of L. major; assay: Leishmania major promastigote growth inhibition assay (Alamar Blue); conditions: promastigotes, 44 hours + 4 hours Alamar Blue, read-out: IC50: I Org. promastigote Growth L. major, 2 d
From the text: Example 108. Leishmania major Promastigote Growth Inhibition Assay
The promastigote assay is a microtiter plate drug sensitivity prescreen assay used to determine antileishmanial activity of candidate drugs against promastigote forms of L. major. (Shadow et al., PLOS Neglected Tropical Diseases, 2009, e311.) Alamar Blue, or resazurin, is a non-fluorescent indicator dye that is converted to bright red-fluorescent resorufin via the activity of mitochondrial reductases. As the activity of mitochondrial reductases is reduced in cells that are dead or dying, and the intensity of the fluorescence is relative to cell number, a test compound that kills or inhibits growth of a particular target cell, such as L. major, will result in a lower production of fluorescent signal. Pre-dosed microtiter drug plates for use in the promastigote drug prescreen assay were produced using sterile 384-well black optical bottom tissue culture plates (Nunc Cat #12-565-344). Candidate drugs were diluted in dimethyl sulfoxide in four 96-well plates to either 10,000 ng/ml or 1,000 ng/ml, and 4.25 μL of diluted drug was subsequently dispensed into each well of a 384-well plate. Duplicate 384 well plates were made at each test concentration (10,000 ng/mL and 1,000 ng/mL) and amphotericin B was used as a batch control. The Tecan EVO Freedom liquid handling system (Tecan US, Inc., Durham, N.C.) was used to produce all drug assay plates and conduct all pipetting operations for this assay. L. major parasites were cultured in Schneider's medium (Lonza Cat #04-351Q) supplemented with 20% heat inactivated FBS (Invitrogen Cat #16140-089). Promastigotes in early log growth phase were harvested from culture, counted, suspended at 1.32×10^5 cells/mF and 5,000 promastigotes were dispensed into each well of the 384 well plate in a volume of 38.8 μL. The 384 well plates were subsequently incubated at 28° C. for 44 hours. 8.4 μF of Alamar Blue (Promega, Cat #G8081) was added to each well, the plates were subsequently incubated at 28° C. and 5% CO2 for 4 hours and then examined for the relative fluorescence units (RFU) per well using the Tecan Genios Plus (Tecan US, Inc., Durham, N.C.) with excitation set at 560 nm and emission set at 590 nm. The relative fluorescence from each well was used to determine the percent growth inhibition of each candidate compound tested. Compounds with 50% or greater inhibition of growth were selected for further analysis to determine IC50 values.

[4] = tested on: Trypanosoma brucei rhodesiense STIB 900 strain; assay: Trypanosoma brucei rhodesiense STIB 900 screening assay; conditions: 72 h, read-out: Swiss TPH T b rhodesiense IC50
Procedure: Example 114. Trypanosoma brucei rhodesiense STIB 900 Screening Assay Procedure
The Trypanosoma brucei rhodesiense STIB 900 strain was isolated in 1982 from a human patient in Tanzania and after several mouse passages cloned and adapted to axenic culture conditions (Baltz, et al., EMBO Journal 4: 1273-1277 (1985); Thuita, et al., Acta Tropica 108: 6-10 (2008)). Minimum Essential Medium (50 μL) supplemented with 25 mM HEPES, 1 g/L additional glucose, 1% MEM non-essential amino acids (100×), 0.2 mM 2-mercaptoethanol, 1 mM Na-pyruvate and 15% heat inactivated horse serum was added to each well of a 96-well microtiter plate. Serial drug dilutions of seven 3-fold steps covering a range from 90 to 0.123 μg/mL were prepared. Then 10^4 bloodstream forms of T. b. rhodesiense STIB 900 in 50 μL was added to each well and the plate incubated at 37° C. under a 5% CO2 atmosphere for 72 h. 10 μL Alamar Blue (resazurin, 12.5 mg in 100 mL double-distilled water) was then added to each well and incubation continued for a further 2-4 h (Raz, et al., Acta Tropica 68: 139-47 (1997)). Then the plates were read with a Spectramax Gemini XS microplate fluorometer (Molecular Devices Corporation, Sunnyvale, Calif., USA) using an excitation wavelength of 536 nm and an emission wavelength of 588 nm. Data were transferred into the graphic program Softmax Pro (Molecular Devices), which calculated IC50 values.

[5] = tested on: bloodstream forms of T. b. rhodesiense STIB 900; assay: T. brucei rhodesiense STIB 900 growth inhibition assay; conditions: Trypanosoma brucei, 72 h, read-out: IC50: I Org. Growth T. brucei rhodesiense STIB 900, 3 d [uM]
From the text: Example 110. T. brucei rhodesiense STIB 900 Growth Inhibition Assay
The parasite strain used in this assay was isolated in 1982 from a human patient in Tanzania and after several mouse passages cloned and adapted to axenic culture conditions, ((a) Baltz, T., D. Baltz, C. Giroud, and J. Crockett. EMBO Journal, 1985, 4:1273-1277. (b) Thuita, J. K., S. M. Karanja, T. Wenzler, R. E. Mdachi, J. M. Ngotho, J. M. Kagira, R. Tidwell, and R. Brun. Acta Tropica 2008, 108:6-10.) Minimum Essential Medium (50 μl) supplemented with 25 mM HEPES, 1 g/l additional glucose, 1% MEM non-essential amino acids (100×), 0.2 mM 2-mercaptoethanol, 1 mM Na-pyruvate and 15% heat inactivated horse serum was added to each well of a 96-well microtiter plate. Serial drug dilutions of seven 3-fold dilution steps covering a range from 90 to 0.123 μg/ml were prepared. Then 10^4 bloodstream forms of T. b. rhodesiense STIB 900 in 50 μl was added to each well and the plate incubated at 37° C. under a 5% CO2 atmosphere for 72 h. 10 μl Alamar Blue (resazurin, 12.5 mg in 100 ml double-distilled water) was then added to each well and incubation continued for a further 2-4 h, (Raz, B., M. Iten, Y. Grether-Buhler, R. Kaminsky, and R. Brun. Acta Trap 1997, 68:139-47.) Then the plates were read with a Spectramax Gemini XS microplate fluorometer (Molecular Devices Cooperation, Sunnyvale, Calif., USA) using an excitation wave length of 536 nm and an emission wave length of 588 nm. Data were analyzed using the microplate reader software Softmax Pro (Molecular Devices Cooperation, Sunnyvale, Calif., USA).

[6] = tested on: L. infantum MHOM/MA(BE)/67 amastigotes in primary peritoneal mouse macrophages; assay: Leishmania infantum intracellular amastigote assay in mouse macrophages; conditions: Macrophage, 120 h, read-out: Inhibition of Organism Growth in Leishmania infantum MHOM/MA/BE/67, 5 d [uM]
Procedure: Example 111. Leishmania infantum Intracellular Amastigote Assay in Mouse Macrophages
L. infantum MHOM/MA(BE)/67 amastigotes were collected from the spleen of an infected donor hamster and used to infect primary peritoneal mouse macrophages. (Kaiser, M., Maes, L., Tadoori, L. P., Spangenberg, T., Ioset, J.-R. J. Biomol. Screen. 2015 20(5), 634-35.) To determine in vitro antileishmanial activity, 3×10^4 macrophages were seeded in each well of a 96-well plate. Culture medium was RPMI-1640 supplemented with L-glutamine (20 mM), 16.5 mM sodium hydrogen carbonate, and 10% fetal calf serum (FCS). After 2 d of outgrowth, 5×10^5 amastigotes/well were added and incubated for 2 h at 37° C. Prediluted samples to be tested were subsequently added, and the plates were further incubated for 5 d at 37° C. and 5% CO2. Total parasite burdens in the well were microscopically assessed after Giemsa staining and expressed as a percentage of the total burden in the blank controls without compound. In treated wells with high amastigote burdens, an overall estimate of the total burden per well was made without discrimination between the number of infected macrophages and the number of amastigotes per infected cell. In treated wells with low burdens, exact counting was performed. The 50% inhibitory concentrations (IC50s) were then generated for each dose response test using GraphPad Prism (GraphPad Software Inc., San Diego, Calif.) using the nonlinear regression (sigmoidal dose-response/variable slope) equation.

SMILES	IC50 [1] [nM]	IC50 [2] [nM]	IC50 [3] [nM]	IC50 [4] [nM]	IC50 [5] [µM]	IC50 [6] [µM]
Cc1c(C(=O)Nc2ccc3c(c2)B(O)OC32CCC2)nnn1-c1ccccn1 [Example 27, N-(1-hydroxy-1H-spiro[benzo[c][1,2]oxaborole-3,1′-cyclobutan]-6-yl)-5-methyl-1-(pyridin-2-yl)-1H-1,2,3-triazole-4-carboxamide]	1100 to 9900	< 600	600 to 2500			
COc1cccc(-n2cc(C(=O)Nc3ccc4c(c3)B(O)OC4)nn2)n1 [Example 64, N-(1-hydroxy-1,3-dihydrobenzo[c][12]oxaborol-6-yl)-1-(6-methoxypyridine-2-yl)-1H-1,2,3-triazole-4-carboxamide]				< 100	0.1 to 0.3	< 3

From patent publication US11691992B2 (Anacor Pharmaceuticals, Inc., priority 2017, dated 2023)
